The record followed here is PMC10249896, “AI-Assisted chemical probe discovery for the understudied Calcium-Calmodulin Dependent Kinase, PNCK” (PLOS Computational Biology, 2023).

pIC50: −log10 of the molar value. “And” between values parts separate entries of the source, which are not always exact repeats. Equal values may be shown once. Read-outs that look alike come from different tables or passages of the source. Some results are limits rather than exact numbers.

What is called pIC50 is −log10 of the IC50, conventionally taken in molar units. High values mean a low IC50, low ones a high IC50. For orientation: inhibition means the change of the read-out against control, counted positive when it falls.

Experiment [1] concerns the target T1, PNCK Nano-luciferase fusion (Homo sapiens, UniProt Q6P2M8).
T1 construct: host or cells: HEK293
Kind of experiment: NanoBRET Target Engagement Intracellular Kinase Assay, cell-based PNCK binding screen and dose response in HEK293 cells. To be noted: Concentration (M) 2.00E-05; replicate values. For orientation: BRET reads energy transfer from a luciferase to a nearby fluorophore.

Experiment [2] deals with T1, PNCK Nano-luciferase fusion. The experiment is described as above. The settings on record: for dose response raw signal: replicate values; for NanoBRET binding, result in words: cell-based screen / comparison with parent hit; for Dose-Response Curve Data (NanoBRET signal, replicates): listed as UM37. Here is the method:
The NanoBRET Target Engagement Intracellular Kinase Assay (Promega N2520) is a cell-based binding screen which reads loss of BRET signal as a result of target binding. A PNCK Nano-luciferase fusion vector plasmid was generated custom by Promega. The K-10 tracer was used for the assay, as determined by Promega. The plasmid was maxiprepped by Genewiz for use in all future assays. HEK293 cells were seeded in a T175 flask in DMEM with 10% FBS. The following day, cells were counted to 10,000, resuspended in assay media (Optimem with no phenol red, 1% FBS). Plasmid and transfection reagent (Fugene HD, Promega E2311) were added to the mixture and cells were seeded in a white 96-well plate. After 20–24 hours, media was changed, and the assay proceeded according to protocol. K10 tracer was added at the recommended concentration of 1uM while compounds were initially screened at both 10uM and 1uM. Cells incubated with compound at 37 degrees Celsius for a maximum of 2 hours before the plate was read using Clariostar Plus. Data was normalized to Staurosporine and DMSO controls. For compounds selected for further analysis, dose response curves were generated using the same testing protocol but at 8 different concentrations: 24uM, 12uM, 6uM, 3uM, 1.5uM, .75uM 0.375uM and 0.1875uM. UM195 was tested with concentrations from 12uM to 0.09375. Similarly, compounds from the analog by catalog analysis were tested at concentrations from 24uM to 0.1875uM.
(§1) Data analysis of ADP Kinase Glo results were carried out per the manufacturer’s instructions. Results were represented as a percent decrease in activity. Data was normalized to staurosporine (positive control) as 100% decrease and DMSO (negative control) as a 0% decrease. Data for NanoBRET was analyzed by dividing the acceptor by the donor emission and […] to obtain raw millibret units (mBU). Background was subtracted using control emission averages. Data was normalized to positive and negative controls of staurosporine and DMSO. Concentration-response curves were plotted in GraphPad Prism 8 and IC50s were extrapolated using non-linear fit with concentrations transformed to logarithmic scale. Baseline was held constant and represented the average mBU of staurosporine controls while the top was constrained to represent the average mBU of DMSO controls. Error bars on dose-response curves represent standard deviations.

In experiment [3] the target is T2, GST-tagged PNCK recombinant protein (Homo sapiens, UniProt Q6P2M8).
T2 construct: GST; purchased Novus NBP1-99886
The experiment can be described thus: ADP-Glo Kinase Assay, biochemical PNCK inhibitor screen. To be noted: for inhibition at 10 µM: read-out: Avg. Normalized % Inhibition, 10uM, ADP Kinase Glo. The protocol:
ADP-Glo Kinase Assay (V6930, Promega) was used to screen the first round of compounds against PNCK. […] Autocamtide-II (GenScript RP10271) was used as the peptide substrate. This peptide was dissolved in water and prepared immediately prior to the assay. Calcium/Calmodulin 10X (Abcam ab189137) solution was used to create a custom kinase buffer: 40mM Tris,pH 7.5; 20mM MgCl2; 0.1mg/ml BSA; 50μM DTT and Ca2+/Calmodulin solution (0.03μg/μl, Calmodulin, 1mM Tris,pH 7.3, 0.5mM CaCl2). […] A standard curve was then done to determine the amount of protein needed to generate a signal in the linear range of the ATP curve. 100ng of PNCK and 2ng of substrate was used per well in the 96-well plate format of this assay. […] Plates were read using the Clariostar Plus. Data was normalized to a DMSO and staurosporine controls.
as §1

The mark [4] stands for this setting: compound 1uM, HEK293, K10 tracer 1uM, normalized to staurosporine and DMSO, read-out: Avg. Normalized % Inhibition, 1uM, Nanobret.
[5] abbreviates: compound 10uM, HEK293, K10 tracer 1uM, normalized to staurosporine and DMSO, read-out: Avg. Normalized % Inhibition, 10uM, Nanobret.
Setting [6] is: compound 10uM, 25uM ATP, normalized to DMSO and staurosporine controls.
Setting [7] is: HEK293, read-out: Avg. Normalized % Inhibition, 1uM, Nanobret.
The mark [8] stands for this setting: HEK293, read-out: Avg. Normalized % Inhibition, 10uM, Nanobret.

T1 sequence (Q6P2M8 whole entry, the tested form may be a part): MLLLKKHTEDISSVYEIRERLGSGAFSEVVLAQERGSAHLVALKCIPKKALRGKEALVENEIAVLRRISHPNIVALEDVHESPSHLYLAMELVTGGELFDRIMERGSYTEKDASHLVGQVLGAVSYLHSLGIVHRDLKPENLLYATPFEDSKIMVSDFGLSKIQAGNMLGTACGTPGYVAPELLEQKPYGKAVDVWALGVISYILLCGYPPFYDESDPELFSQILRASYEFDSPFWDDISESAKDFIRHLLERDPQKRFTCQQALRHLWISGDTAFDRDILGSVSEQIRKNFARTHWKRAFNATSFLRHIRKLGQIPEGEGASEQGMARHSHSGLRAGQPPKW

For `O=C1CN(C(=O)COc2ccc3c4c(c(=O)oc3c2)CCCCC4)CCN1` [UM_259], the “dose response raw signal” value in experiment [1] was 4.80 and 4.22 and 5.32 and 4.30; in experiment [2] (Concentration (M) 1.00E-05), 4.13 and 4.39 and 5.19 and 4.12; in experiment [2] (Concentration (M) 1.25E-06), 5.91 and 7.63 and 6.69 and 6.36; in experiment [2] (Concentration (M) 1.56E-07) it was 7.98 and 8.01 and 8.32 and 8.22; in experiment [2] (Concentration (M) 2.50E-06), 4.91 and 6.63 and 5.69 and 5.36; in experiment [2] (Concentration (M) 3.13E-07), 8.79 and 8.75 and 7.57 and 7.89. The “dose response raw signal” value in experiment [2] (Concentration (M) 5.00E-06) was 4.98 and 5.24 and 5.45 and 6.11; in experiment [2] (Concentration (M) 6.25E-07), 8.89 and 8.75 and 7.37 and 7.79. The pIC50 in experiment [2] (8-point concentration-response, HEK293) is 5.54. Besides, in experiment [2], the “NanoBRET binding, result in words” value was “higher affinity for PNCK than the parent”. Besides, the inhibition at 1 µM in experiment [2] (setting [4]) was determined as 27.5%. In experiment [2] (setting [5]), the inhibition at 10 µM was found to be 84.1%.
In the case of `COc1cc(OC)c(Nc2ncnc3sc(C(=O)O)c(C)c23)cc1Cl` [UM_028], the “Avg. Normalized % Inhibition, 10uM, ADP Kinase Glo” value (“Avg. Normalized % Inhibition, 10uM” below) in experiment [3] (setting [6]) is reported as “Negligible”. The inhibition at 1 µM in experiment [2] (setting [4]) was found to be 3.45%. Also, the inhibition at 10 µM in experiment [2] (setting [5]) came out at 16.7%.
Regarding `O=C(O)c1ccc(F)c(S(=O)(=O)Nc2ccc(-c3cnco3)cc2)c1` [UM_021], the results for the inhibition at 10 µM in experiment [3] (setting [6]) and in experiment [2] (setting [5]) were 33.3% and 0%, respectively. The inhibition at 1 µM in experiment [2] (setting [4]) stood at 0%.
Regarding `COc1ccccc1CNc1ncnc2sc(C(=O)O)c(C)c12` [UM_035], in experiment [3] (setting [6]), the “Avg. Normalized % Inhibition, 10uM” value is 75.66%. For the same molecule, in experiment [2] (setting [4]), the inhibition at 1 µM came to 0%. Further, in experiment [2] (setting [5]), the inhibition at 10 µM was 13.6%.
`Cc1ccc(F)c(S(=O)(=O)Nc2ccc(-c3nn(C)cc3C(=O)O)cc2)c1` [UM_023]: the inhibition at 10 µM stood at 38.2% in experiment [3] (setting [6]) and 17.6% in experiment [2] (setting [5]). In addition, the inhibition at 1 µM in experiment [2] (setting [4]) came to 2.86%.
In the case of `O=c1nc(CSc2nnc(-c3ccccc3)c3ccccc23)[nH][nH]1` [UM_022], in experiment [3] (setting [6]), the “Avg. Normalized % Inhibition, 10uM” value is given as “Negligible”. In experiment [2] (setting [4]), the inhibition at 1 µM was 0%. The inhibition at 10 µM in experiment [2] (setting [5]) amounted to 10.5%.
`CC(C)(C(=O)O)c1ccc(NS(=O)(=O)c2cc(F)c(F)cc2F)cc1` [UM_025]: the values for the inhibition at 10 µM in experiment [3] (setting [6]) and in experiment [2] (setting [5]) were 75.3% and 17.2%, respectively. Further, the inhibition at 1 µM in experiment [2] (setting [4]) amounted to 0%.
In the case of `COc1cccc([C@@H](C)NC(=O)c2ccc(N3CC(=O)NC3=O)cc2)c1` [UM_032], in experiment [3] (setting [6]), the “Avg. Normalized % Inhibition, 10uM” value was determined as 69.5% and the inhibition at 10 µM is more than 50%. The inhibition at 1 µM in experiment [2] (setting [4]) is 0%. For the same molecule, the inhibition at 10 µM in experiment [2] (setting [5]) turned out to be 17.4%.
Turning to `CC(C)c1ccc(NS(=O)(=O)c2cc(-c3ccc(=O)[nH]n3)ccc2Cl)cc1` [UM_029], the “Avg. Normalized % Inhibition, 10uM” value in experiment [3] (setting [6]) was found to be 81.53%. Moreover, the inhibition at 1 µM in experiment [2] (setting [4]) is 0%. Besides, in experiment [2] (setting [5]), the inhibition at 10 µM was determined as 52%.
As to `O=c1[nH]c2ccccc2n1CCCSc1nnc2c(n1)[nH]c1ccccc12` [UM_037, 1-(3-5H-[1,2, 4]triazino [5,6-b]indol-3-ylsulfanylpropyl)-2,3-dihydro-1H-1,3-benzodiazol-2-one], in experiment [3] (setting [6]), the “Avg. Normalized % Inhibition, 10uM” value is recorded as “minimal inhibitory activity”. For the same molecule, the “Dose-Response Curve Data (NanoBRET signal, replicates)” value in experiment [2] (Concentration 1.20E-05 M) was 6.25 and 6.50 and 6.41; in experiment [2] (Concentration 1.50E-06 M), 7.94 and 8.66 and 7.96; in experiment [2] (Concentration 1.88E-07 M) it was 8.18 and 8.37 and 8.94; in experiment [2] (Concentration 2.40E-05 M) it was 4.85 and 4.94 and 5.59; in experiment [2] (Concentration 3.00E-06 M), 8.21 (2×) and 8.11; in experiment [2] (Concentration 3.75E-07 M), 8.11 and 8.67 and 8.63. In addition, the “Dose-Response Curve Data (NanoBRET signal, replicates)” value in experiment [2] (Concentration 6.00E-06 M) was 7.28 and 7.38 and 7.80; in experiment [2] (Concentration 7.50E-07 M), 8.16 and 8.66 and 8.74.
On to `COc1ccc(C(=O)/C=C/c2n[nH]c3cc(C(=O)O)ccc23)c(F)c1` [UM_020], for which the “Avg. Normalized % Inhibition, 10uM” value in experiment [3] (setting [6]) is recorded as “Negligible”. The inhibition at 1 µM in experiment [2] (setting [4]) is 0%. In addition, the inhibition at 10 µM in experiment [2] (setting [5]) was 0%.
As for `O=C(O)c1n[nH]c2c1CN(C(=O)c1ccc(N3CCOCC3)cc1)CC2` [UM_030], the “Avg. Normalized % Inhibition, 10uM” value in experiment [3] (setting [6]) is listed as “Negligible”. In addition, the inhibition at 1 µM in experiment [2] (setting [4]) was 0%. For the same molecule, in experiment [2] (setting [5]), the inhibition at 10 µM is 11.3%.
Consider `O=C(O)Cc1cc(C2CCN(C(=O)Cc3n[nH]c4ccccc34)CC2)[nH]n1` [UM_039], for which the “Avg. Normalized % Inhibition, 10uM” value in experiment [3] (setting [6]) is 91% and 91.1687%. In experiment [2], the “NanoBRET binding, result in words” value is “negligible activity”. Moreover, in experiment [2] (setting [4]), the inhibition at 1 µM is 2.17%. In addition, in experiment [2] (setting [5]), the inhibition at 10 µM was 6.89%.
Take `Cc1ccccc1CN1CCC(CNc2ncnc3sc(C(=O)O)c(C)c23)CC1` [UM_027]: the inhibition at 10 µM in experiment [3] (setting [6]) amounted to 63.9%; in experiment [2] (setting [5]), 23%. The inhibition at 1 µM in experiment [2] (setting [4]) turned out to be 7.16%.
With `CC(C)(CC(=O)Nc1ccc(Oc2ccnc3ccccc23)c(F)c1)C(=O)O` [UM_026], the “Avg. Normalized % Inhibition, 10uM” value in experiment [3] (setting [6]) came to 76.56%. Also, in experiment [2] (setting [4]), the inhibition at 1 µM worked out at 0%. In addition, the inhibition at 10 µM in experiment [2] (setting [5]) is 0%.
With `O=C(O)c1ccc(-c2nc3c([nH]2)CCN(C(=O)c2cc(C4CC4)n[nH]2)C3)cc1` [UM_034], the inhibition at 10 µM came out at 51.7% in experiment [3] (setting [6]) and 7.78% in experiment [2] (setting [5]). Also, in experiment [2] (setting [4]), the inhibition at 1 µM came out at 6.51%.
On to `O=C1NC(=O)C(=Cc2ccc(Sc3nc4ccccc4[nH]3)o2)C(=O)N1` [UM_036], for which the results for the inhibition at 10 µM in experiment [3] and in experiment [2] (setting [8]) were 39.2% and 16.8%, respectively. Further, in experiment [2] (setting [7]), the inhibition at 1 µM is 2.83%.
Consider `CN([C@@H](Cc1ccc(OS(=O)(=O)c2cccc3cnccc23)cc1)C(=O)N1CCN(c2ccccc2)CC1)S(=O)(=O)c1cccc2cnccc12` [KN-62, reference compound], for which the inhibition at 10 µM turned out to be 100% in experiment [3] (setting [6]) and 81.5% in experiment [2] (setting [8]). For the same molecule, the inhibition at 1 µM in experiment [2] (setting [7]) was 31.2%.
